Measured values: patent US20160287553A1, “TRANSLATION INHIBITORS IN HIGH-DOSE CHEMO- AND/OR HIGH-DOSE RADIOTHERAPY” (DEUTSCHES KREBSFORSCHUNGSZENTRUM, priority 2013, published 2016)

What was measured:
[1] = test system: L1236 (Hodgkin's lymphoma), p53 mutated; assay: Etoposide-induced cell death in L1236; type: cell-based, human; conditions: L1236 (FIG. 5a)
Protocol: (§1) DNA fragmentation was determined by FACS.
(§2) Since Roc-A-mediated protection of non-malignant cells from DNA-damage-induced cell death is largely p53-dependent, we predicted that Roc-A would not protect cancer cells which have non-functional p53. […] 1997; 19: 243-253), Reh (Zhou et al, loc cit.), SKW6.4 (Barbarotto et al., J Cell Biochem. 2008; 104: 595-605) and NCI-H209 (Fujita et al. Int J Oncol. 1999; 15: 927-934) which have a WT p53 protein.

[2] = test system: Splenocytes from p53+/+ mice; assay: Etoposide-induced cell death in p53 wild-type splenocytes; type: cell-based, mouse; conditions: p53-WT splenocytes, 50 μM Etoposide, 75 nM Roc-A (FIG. 4b)
Protocol: as §1
P53^−/− C57B1/6 mice (B6.Trp53tm1Tyj) were kindly provided by Liu H-K (German Cancer Research Center, Heidelberg, Germany). Spleens of 8-12 week old p53^−/−, and p53^+/+ mice were isolated in parallel, minced and incubated for 30 min in RPMI-1640 medium supplemented with DNase I (50 U/ml) and Collagenase IV (1 mg/ml) at 37° C. and 5% CO2. Splenocytes were filtered by […] cell strainer, washed twice with ice-cold wash buffer (PBS, 0.5% FCS, 2 mM EDTA) and resuspended in Oxford medium (RPMI 1640, 10% FCS, 100 μg/ml Penicillin, 100 μg/ml Streptamycin, 10 mM Hepes, 50 μM β-Mercaptoethanol, 2 mM L-glutamine, 1 mM sodium pyruvate, 100 μM non-essential amino acids) at a concentration of 2×10^6 cells/ml.
To further investigate the role of p53 in Roc-A-mediated protection of T cells against DNA damage-induced apoptosis, we performed a p53 knock-down experiment using a siRNA approach (FIG. 4a, upper panel). […] Therefore, we examined the effect of Roc-A on p53 knock-out (KO) cells.

[3] = test system: malignant cells; assay: Fold change in cell death on raising the Etoposide dose, malignant cells (FIG. 9a-b); type: cell-based; conditions: 75 nM Roc-A in parallel to Etoposide, 6.25 μM to 50 μM, 24 h
Protocol: (a) Cells from (b) were grouped into malignant and non-malignant cells. Shown are means of three independent experiments. Abbreviations; HSPCs=hematopoietic stem and progenitor cells. (c-d) Malignant and non-malignant cells were exposed to ionizing radiation (IR) in the presence of 75 nM Roc-A or solvent (DMSO) and cell death was determined after 24 h by DNA fragmentation. Depicted is the fold-change in cell death that was measured when doses of IR were increased from 2 Gy to 10 Gy. (c) Cells from (d) were grouped into malignant and non-malignant cells. Shown are means of three independent experiments.
as §1
Roc-A specifically prevents the cause of chemotherapeutic and radiation-induced side-effects, i.e., the death of healthy cells. […] Consequently, high-dose therapy is not possible, as side effects would be too high.

[4] = test system: protein synthesis in T cells; assay: Translation assay: [35S]methionine incorporation in T cells; type: cell-based, human; conditions: T cells (FIG. 6b)
Protocol: The relative amount of protein synthesis was determined by measuring the amount of incorporation of ^35S-methionine into the protein. Briefly, cells were pre-cultured in methionine-free medium (supplemented with 10% dialyzed FCS) for 3 h, followed by incubation with 3.5 μCi of ^35S-methionine-labeling mix (PerkinElmer, Waltham, Mass., USA) per 8×10^5 cells for 6 h as indicated. After the treatment, cells were washed twice with ice-cold PBS and lysed in RIPA buffer. 50 μl of each lysate were added to 1 ml of Liquid Scintillation Cocktail solution (Beckman Coulter, Brea, Calif., USA) and the amount of incorporated radioactivity was determined by liquid scintillation counting.
Roc-A has been well documented to inhibit protein translation (Polier et al., Chem Biol. 2012; 19: 1093-1104; Sadlish et al., ACS Chem Biol. 2013; doi:10.1021/cb400158t; Bleumink et al., Cell Death Differ. 2011; 18: 362-370; Cencic et al., PloS one. 2009; 4: e5223). Thus, we expected that Roc-A-mediated suppression of genotoxin-induced p53 upregulation may be regulated by inhibition of p53 protein synthesis.

[5] = test system: SCLC-21H cells (small cell lung cancer), p53 mutated; assay: Etoposide-induced cell death in SCLC-21H; type: cell-based, human; conditions: SCLC-21H (FIG. 5a)
Protocol: as §1, §2

[6] = test system: DND-41 (T cell leukemia), p53 mutated; assay: Etoposide-induced cell death in DND-41; type: cell-based, human; conditions: DND-41 (FIG. 5a)
Protocol: as §1, §2

[7] = test system: cardiomyocytes; assay: Etoposide-induced apoptosis in cardiomyocytes; type: cell-based, human; conditions: cardiomyocytes (FIG. 1c)
Protocol: as §1
Next, we asked whether Roc-A could also protect other normal primary cells from DNA damage-induced toxicity. To address this question, we examined the protective effect of Roc-A on Etoposide-treated human peripheral blood B cells, NK cells, neutrophils, cardiomyocytes and murine hematopoietic stem and progenitor cells (HSPCs).

COc1ccc([C@@]23Oc4cc(OC)cc(OC)c4[C@]2(O)[C@H](O)[C@H](C(=O)N(C)C)[C@H]3c2ccccc2)cc1 [Roc-A, (1R,2R,3S,3aR,8bS)-1,8b-dihydroxy-6,8-dimethoxy-3a-(4-methoxyphenyl)-N,N-dimethyl-3-phenyl-2,3-dihydro-1H-cyclopenta[b][1]benzofuran-2-carboxamide]
Protection against Etoposide-induced cell death [1]: did neither protect
Protection against Etoposide-induced cell death [2]: protected
Change in cell death on increased Etoposide doses with Roc-A [3]: increased cell death in malignant cells
Inhibition of [35S]methionine incorporation (protein translation) [4]: inhibited [^35S]methionine incorporation at different degrees
Protection against Etoposide-induced cell death [5]: did neither protect
Protection against Etoposide-induced cell death [6]: did neither protect
Protection against Etoposide-induced apoptosis [7]: protected
